Like-named read-outs stand apart in the source and are kept apart here.
Legend:
[1] = molecular target: T1, Muscarine M4 (GPCR-A-MA-ACH M4) (Homo sapiens, UniProt P08173); experiment: Muscarine M4 receptor binding, 3H-Oxotremorine
T1 construct: expressed in transfected cells; host or cells: CHO cells
T1 sequence (P08173 1-479): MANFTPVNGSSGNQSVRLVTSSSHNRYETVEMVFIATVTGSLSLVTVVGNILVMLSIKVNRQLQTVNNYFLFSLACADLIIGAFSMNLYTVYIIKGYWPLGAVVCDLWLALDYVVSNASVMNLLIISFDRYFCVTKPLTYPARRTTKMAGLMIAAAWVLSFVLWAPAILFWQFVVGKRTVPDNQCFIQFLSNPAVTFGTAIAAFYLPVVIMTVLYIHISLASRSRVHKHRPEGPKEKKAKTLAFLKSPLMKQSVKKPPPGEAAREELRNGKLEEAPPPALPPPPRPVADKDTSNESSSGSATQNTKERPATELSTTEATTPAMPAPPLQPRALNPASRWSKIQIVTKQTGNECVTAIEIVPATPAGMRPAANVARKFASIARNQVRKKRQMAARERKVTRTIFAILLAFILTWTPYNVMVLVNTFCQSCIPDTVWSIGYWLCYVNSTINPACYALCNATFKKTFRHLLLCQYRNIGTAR
Method: (§1) Compounds were dissolved in DMSO (10 mM) and diluted in assay buffer to test concentration. Prime testing was at 10 μM; for actives (PI, percent inhibition with respect to total and non-specific binding >40%) testing was continued at lower concentrations in 10-fold dilutions: 1 μM, 0.1 μM, etc.
(§2) Following incubation of compound with the receptor preparation (from ‘Tissue’) and the Ligand at the time and temperature indicated, the receptor preparations were rapidly filtered under vacuum through glass fibre filters; the filters were washed extensively with an ice-cold buffer using a harvester. Bound radioactivity was measured by scintillation counting using a liquid scintillation cocktail.
(§3) Results were expressed as percentage of total Ligand binding and that of Non Specific Binding, per concentration of Compound tested (duplicates); from the concentration—displacement curves IC50 values were determined by non-linear regression analysis using Hill equation curve fitting. The inhibition constants (Ki) were calculated from the Cheng-Prushoff equation Ki=IC50/(1+L/Kd), where L is the concentration of radioligand in the assay, and Kd the affinity of the radioligand for the receptor. Results were expressed as pKi's, means±SD of at least 2 separate experiments; i.e. outliers (outside+/−1 std of mean) and discrepancies were excluded.

[2] = molecular target: T1, Muscarine M4 (GPCR-A-MA-ACH M4); experiment: Muscarine M4 receptor binding, 3H-4DAMP; conditions: human M4, CHO cells, ligand 0.2 nM, 60 min/22° C.; for Ki: read-out: RB Musc. M4 3H-DAMP pKi (converted)
Method: as §1, §2, §3

[3] = molecular target: T1, Muscarine M4 (GPCR-A-MA-ACH M4); experiment: Muscarine M4 cell-based functional assay (CHO cells, Ca2+ - Aequorin luminescence)
Method: Compounds were dissolved in DMSO (10 mM) and diluted in assay buffer to test concentration. Prime testing was at 1 μM; for actives in antagonist mode (PI, percent inhibition with respect to reference agonist and blank>30%) as well as actives in agonist mode (PS, percent stimulation with respect to reference agonist and blank>30%) testing was continued at lower concentrations in 10-fold dilutions: 0.1 μM, 0.01 μM, etc.
Cells were incubated with compound and the response indicated was measured.
The results are expressed as a percent of reference agonist values and blanks in the presence of the test compound, percent stimulation for agonist mode; for the antagonist mode (test compound in the presence of reference agonist) as percent inhibition. The EC50 values (concentration causing a half-maximal stimulation of control values), IC50 values (concentration causing a half-maximal inhibition of control values) were determined by non-linear regression analysis of the concentration-response curves using Hill equation curve fitting.

[4] = molecular target: T2, Muscarine M1 (GPCR-A-MA-ACH M1) (Homo sapiens, UniProt P11229); experiment: Muscarine M1 cell-based functional assay (CHO cells, Ca2+ - FLIPR Fluorimetry); conditions: human M1, CHO cells; agonist mode, reference agonist acetylcholine; read-out: Cell funct. Musc. M1 Agonism pEC50 (converted)
T2 construct: expressed in transfected cells; host or cells: CHO cells
T2 sequence (P11229 1-460): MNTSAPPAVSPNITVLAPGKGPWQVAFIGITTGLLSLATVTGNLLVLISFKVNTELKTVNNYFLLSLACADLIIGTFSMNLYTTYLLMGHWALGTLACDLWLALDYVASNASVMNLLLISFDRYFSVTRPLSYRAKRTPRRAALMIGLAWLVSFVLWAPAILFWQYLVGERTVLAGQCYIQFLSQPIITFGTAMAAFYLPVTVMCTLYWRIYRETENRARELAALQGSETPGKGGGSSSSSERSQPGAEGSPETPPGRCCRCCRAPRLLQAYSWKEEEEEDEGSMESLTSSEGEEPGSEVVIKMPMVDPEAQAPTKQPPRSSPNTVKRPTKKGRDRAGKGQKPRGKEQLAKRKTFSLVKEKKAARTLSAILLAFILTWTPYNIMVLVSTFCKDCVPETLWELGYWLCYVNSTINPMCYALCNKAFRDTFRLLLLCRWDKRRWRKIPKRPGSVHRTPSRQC

[5] = molecular target: T2, Muscarine M1 (GPCR-A-MA-ACH M1); experiment: Muscarine M1 receptor binding, 3H-Pirenzepine; conditions: human M1, CHO cells, ligand 2 nM, 60 min/22° C.; for Ki: read-out: RB Musc. M1 3H-Pirenzepine pKi (converted)
Method: as §1, §2, §3

[6] = human M4, CHO cells, receptor binding, ligand 6 nM, 30 min/25° C., read-out: RB Musc. M4 3H-Oxotremorine pKi (converted)
[7] = human M4, CHO cells, agonist mode, reference agonist oxotremorine, read-out: Cell funct. Musc. M4 Agonism pEC50 (converted)

SMILES	Ki [1, 6]	Ki [2]	EC50 [3, 7]	EC50 [4]	Ki [5]	RB Musc. M4 3H-Oxotremorine pKi ([1]; human M4, CHO cells, receptor binding, ligand 6 nM, 30 min/25° C.)	RB Musc. M4 3H-DAMP pKi [2]	Cell funct. Musc. M4 Agonism pEC50 ([3]; human M4, CHO cells, agonist mode, reference agonist oxotremorine)	RB Musc. M1 3H-Pirenzepine pKi [5]	Ki [1]	EC50 [3]
CCCCCC#Cc1c[nH]nc1C1=CCCN(C)C1 [Compound 45B, 3-(4-Hept-1-ynyl-1H-pyrazol-3-yl)-1,2,5,6-tetrahydro-1-methylpyridine]	501 nM	1260 nM	316 nM	126 nM	2000 nM	–	–	–	–	–	–
CN1CCC=C(c2n[nH]cc2SCc2ccccc2)C1 [Compound 22N, 3-(4-Benzylsulfanyl-1H-pyrazol-3-yl)-1,2,5,6-tetrahydro-1-methylpyridine]	251 nM	251 nM	> 10000 nM	–	398 nM	–	–	–	–	–	–
CCCCSc1c[nH]nc1[C@@H]1CN2CCC[C@H]1C2 (relative stereo) [Compound 60B, Endo-6-(4-butylsulfanyl-1H-pyrazol-3-yl)-1-azabicyclo[3.2.1]octane]	–	158 nM	> 10000 nM	> 1000 nM	398 nM	–	–	–	–	251 nM	–
CN1CCC=C(c2n[nH]cc2OCCCc2ccccc2)C1 [Compound 33A, 3-[4-(3-Phenyl-propoxy)-1H-pyrazol-3-yl]-1,2,5,6-tetrahydro-1-methylpyridine]	501 nM	251 nM	794 nM	126 nM	1260 nM	–	–	–	–	–	–
CN1CCC=C(c2n[nH]cc2SCCCc2ccccc2)C1 [Compound 22I, 3-[4-(3-Phenyl-propylsulfanyl)-1H-pyrazol-3-yl]-1,2,5,6-tetrahydro-1-methylpyridine]	100 nM	251 nM	251 nM	100 nM	794 nM	–	–	–	–	–	–
CN1CCC=C(c2n[nH]cc2C#CCCCC2CCCCC2)C1 [Compound 45E, 3-[4-(5-Cyclohexyl-pent-1-ynyl)-1H-pyrazol-3-yl]-1,2,5,6-tetrahydro-1-methylpyridine]	1580 nM	1580 nM	> 10000 nM	> 1000 nM	1580 nM	–	–	–	–	–	–
CCCCSc1cc(C2=CCCN(C)C2)n[nH]1 [Compound 26, 3-(5-Butylsulfanyl-1H-pyrazol-3-yl)-1,2,5,6-tetrahydro-1-methylpyridine]	251 nM	200 nM	> 10000 nM	–	158 nM	–	–	–	–	–	–
C=CCSc1c[nH]nc1C1=CCCN(C)C1 [Compound 22Q, 3-(4-Allylsulfanyl-1H-pyrazol-3-yl)-1,2,5,6-tetrahydro-1-methylpyridine]	126 nM	501 nM	> 10000 nM	–	794 nM	–	–	–	–	–	–
COCCOCCSc1c[nH]nc1C1=CCCN(C)C1 [Compound 22P, 3-{4-[2-(2-Methoxy-ethoxy)-ethylsulfanyl]-1H-pyrazol-3-yl}-1,2,5,6-tetrahydro-1-methylpyridine]	6310 nM	6310 nM	1260 nM	398 nM	> 10000 nM	–	–	–	–	–	–
CCCC(=O)Nc1c[nH]nc1C1=CCCN(C)C1 [Compound 41]	> 10000 nM	> 10000 nM	> 10000 nM	–	> 10000 nM	–	–	–	–	–	–
O=C1CCCN1CC#CCN1CCCC1 [oxotremorine, reference compound]	–	–	–	–	–	–	–	–	–	–	40 nM
CCCCc1c[nH]nc1C1=CCCN(C)C1 [Compound 16, 3-(4-Butyl-1H-pyrazol-3-yl)-1,2,5,6-tetrahydro-1-methylpyridine]	–	–	> 10000 nM	–	–	–	–	–	–	–	–
CN1CCC=C(c2n[nH]cc2SCCC#N)C1 [Compound 22R, 3-[3-(1-Methyl-1,2,5,6-tetrahydro-pyridin-3-yl)-1H-pyrazol-4-ylsulfanyl]-propionitrile]	2000 nM	3980 nM	> 10000 nM	–	12600 nM	–	–	–	–	–	–
CCCCNc1c[nH]nc1C1=CCCN(C)C1 [Compound 42, Butyl-[3-(1-Methyl-1,2,5,6-tetrahydro-pyridin-3-yl)-1H-pyrazol-4-yl]-amine]	3980 nM	5010 nM	> 10000 nM	–	7940 nM	–	–	–	–	–	–
CN1CCC=C(c2n[nH]cc2SCc2ccco2)C1 [Compound 22M, 3-[4-(Furan-2-yl-methylsulfanyl)-1H-pyrazol-3-yl]-1,2,5,6-tetrahydro-1-methylpyridine]	251 nM	398 nM	> 10000 nM	–	501 nM	–	–	–	–	–	–

Continued, in another order:

Ki [1, 6]	Ki [2]	EC50 [3, 7]	EC50 [4]	Ki [5]	RB Musc. M4 3H-Oxotremorine pKi ([1]; human M4, CHO cells, receptor binding, ligand 6 nM, 30 min/25° C.)	RB Musc. M4 3H-DAMP pKi [2]	Cell funct. Musc. M4 Agonism pEC50 ([3]; human M4, CHO cells, agonist mode, reference agonist oxotremorine)	RB Musc. M1 3H-Pirenzepine pKi [5]	SMILES	Ki [1]	EC50 [3]
251 nM	794 nM	631 nM	794 nM	794 nM	–	–	–	–	CCCCCCC=Cc1c[nH]nc1C1=CCCN(C)C1 [Compound 47C, 3-(4-Oct-1-enyl-1H-pyrazol-3-yl)-1,2,5,6-tetrahydro-1-methylpyridine]	–	–
251 nM	794 nM	501 nM	158 nM	2510 nM	–	–	–	–	CCCCC=Cc1c[nH]nc1C1=CCCN(C)C1 [Compound 47A, 3-(4-Hex-1-enyl-1H-pyrazol-3-yl)-1,2,5,6-tetrahydro-1-methylpyridine]	–	–
251 nM	200 nM	631 nM	251 nM	1000 nM	–	–	–	–	CCCCCC#Cc1conc1C1=CCCN(C)C1 [Compound 70A, 3-(4-Hept-1-ynyl-isoxazol-3-yl)-1,2,5,6-tetrahydro-1-methylpyridine]	–	–
794 nM	1000 nM	794 nM	794 nM	5010 nM	–	–	–	–	CCCCCCC=Cc1conc1C1=CCCN(C)C1 [Compound 68B, 3-(4-Oct-1-enyl-isoxazol-3-yl)-1,2,5,6-tetrahydro-1-methylpyridine]	–	–
158 nM	100 nM	501 nM	–	631 nM	–	–	–	–	CCCCCCSc1conc1C1=CCCN(C)C1 [Compound 66B, 3-(4-Hexylsulfanyl-isoxazol-3-yl)-1,2,5,6-tetrahydro-1-methylpyridine]	–	–
79.4 nM	39.8 nM	> 10000 nM	–	251 nM	–	–	–	–	CCCCSc1conc1C1=CCCN(C)C1 [Compound 66A, 3-(4-Butylsulfanyl-isoxazol-3-yl)-1,2,5,6-tetrahydro-1-methylpyridine]	–	–
–	–	–	–	–	6.8	6.5	<5.0	6.1	CN1CCC=C(c2n[nH]cc2C=Cc2cccc(F)c2)C1 [Compound 47B, 3-{-4-2[-(3-Fluor-Phenyl)-vinyl]-1H-pyrazol-3-yl}-1,2,5,6-tetrahydro-1-methylpyridine]	–	–
63.1 nM	251 nM	> 10000 nM	–	398 nM	–	–	–	–	CCCCCSc1c[nH]nc1[C@@H]1CN2CCC[C@H]1C2 [Compound 60A, Endo-6-(4-pentylsulfanyl-1H-Pyrazol-3-yl)-1-azabicyclo[3.2.1]octane]	–	–
